# Source: patent publication US20070128217A1 (priority 2003, published 2007)
# What was measured:
# [1] = system: antibodies in sera from SARS patients (sera 1a, 1b, 2, 6, 37, 62, London, SARS-yellow, SARS-green); assay type: binding, human; design: Binding of serum 6 to linear peptides of protein X1 of SARS-CoV Urbani / Binding of serum 37 to linear peptides of protein X1 of SARS-CoV Urbani / Binding of serum 6 to looped/cyclic peptide (PEPSCAN-ELISA) / Binding of serum 37 to looped/cyclic peptide (PEPSCAN-ELISA) / Binding of serum 37 to looped/cyclic peptides of protein X1 of SARS-CoV Urbani / Binding of serum 6 to linear peptides of protein X2 / Binding of serum 37 to linear peptides of protein X2 / Binding of serum 37 to looped/cyclic peptides of protein X2 of SARS-CoV Urbani / Binding of serum 6 to linear peptides of protein M of SARS-CoV Urbani / Binding of serum 37 to linear peptides of protein M of SARS-CoV Urbani / Binding of serum 6 to looped/cyclic peptides of protein M of SARS-CoV Urbani / Binding of serum 37 to looped/cyclic peptides of protein M of SARS-CoV Urbani / Binding of serum 6 to linear peptides of protein X3 of SARS-CoV Urbani / Binding of serum 37 to linear peptides of protein X3 of SARS-CoV Urbani / Binding of serum 37 to looped/cyclic peptides of protein X3 of SARS-CoV Urbani / Binding of serum 6 to linear peptides of protein X4 of SARS-CoV Urbani / Binding of serum 37 to linear peptides of protein X4 of SARS-CoV Urbani / Binding of serum 37 to looped/cyclic peptides of protein X4 of SARS-CoV Urbani / Binding of serum 6 to linear peptides of protein X5 of SARS-CoV Urbani / Binding of serum 37 to linear peptides of protein X5 of SARS-CoV Urbani / Binding of serum 37 to looped/cyclic peptides of protein X5 of SARS-CoV Urbani / Binding of serum 6 to linear peptides of protein N of SARS-CoV Urbani / Binding of serum 37 to linear peptides of protein N of SARS-CoV Urbani / Binding of serum 6 to linear peptide (PEPSCAN-ELISA) / Binding of serum 1a to looped/cyclic peptides of protein N of SARS-CoV Urbani / Binding of serum 1b to looped/cyclic peptides of protein N of SARS-CoV Urbani / Binding of serum 2 to looped/cyclic peptides of protein N of SARS-CoV Urbani / Binding of serum 6 to looped/cyclic peptides of protein N of SARS-CoV Urbani / Binding of serum 37 to looped/cyclic peptides of protein N of SARS-CoV Urbani / Binding of serum 62 to looped/cyclic peptides of protein N of SARS-CoV Urbani / Binding of serum London to looped/cyclic peptides of protein N of SARS-CoV Urbani / Binding of serum SARS-green to looped/cyclic peptides of protein N of SARS-CoV Urbani: unit not given here
# [2] = system: control sera (pooled serum of ten healthy LUMC hospital workers; commercial negative donor pooled serum from the Dutch bloodbank); assay type: binding, human; design: Binding of Control serum LUMC to linear peptides / Binding of Control serum Blood-bank to linear peptides / Binding of Control serum LUMC to looped peptides / Binding of Control Serum Blood-Bank to Looped peptides / Binding of Control serum LUMC to linear peptides of the protein M of SARS-CoV Urbani / Binding of Control serum Blood-bank to linear peptides of the protein M of SARS-CoV Urbani / Binding of Control serum LUMC to looped peptides of the protein M of SARS-CoV Urbani / Binding of Control Serum Blood-Bank to Looped peptides of the protein M of SARS-CoV Urbani: unit not given here
# [3] = system: rabbit serum obtained by immunizing a rabbit with the SARS-CoV strain Frankfurt 1; assay type: binding; design: Binding of a rabbit serum to linear peptides / Binding of a rabbit serum to looped peptides / Rabbit serum linear peptides / Rabbit serum looped peptides / Binding of a rabbit serum to linear peptides of protein N of SARS-CoV Urbani (Rabbit serum linear peptides) / Binding of a rabbit serum to looped/cyclic peptides of protein N of SARS-CoV Urbani (Rabbit serum looped peptides): unit not given here
sequence,measurement,setting,value
SQRVGTDSGFAAYNR,Binding of serum 1a to linear peptides of protein M of SARS-CoV Urbani,[1],0.8
same,Binding of serum 1a to looped/cyclic peptides of protein M of SARS-CoV Urbani,[1],0.5
same,Binding of serum 1b to linear peptides of protein M of SARS-CoV Urbani,[1],0.6
same,Binding of serum 1b to looped/cyclic peptides of protein M of SARS-CoV Urbani,[1],0.4
same,Binding of serum 2 to linear peptides of protein M of SARS-CoV Urbani,[1],0.4
same,Binding of serum 2 to looped/cyclic peptides of protein M of SARS-CoV Urbani,[1],0.7
same,Binding of serum 6 to linear peptides of protein M of SARS-CoV Urbani,[1],0.6
same,Binding of serum 6 to looped/cyclic peptides of protein M of SARS-CoV Urbani,[1],0.6
same,Binding of serum 37 to linear peptides of protein M of SARS-CoV Urbani,[1],0.5
same,Binding of serum 37 to looped/cyclic peptides of protein M of SARS-CoV Urbani,[1],0.2
same,Binding of serum 62 to linear peptides of protein M of SARS-CoV Urbani,[1],0.4
same,Binding of serum 62 to looped/cyclic peptides of protein M of SARS-CoV Urbani,[1],0.5
same,Binding of serum London to linear peptides of protein M of SARS-CoV Urbani,[1],0.4
same,Binding of serum London to looped/cyclic peptides of protein M of SARS-CoV Urbani,[1],0.2
same,Binding of serum SARS-green to linear peptides of protein M of SARS-CoV Urbani,[1],0.5
same,Binding of serum SARS-green to looped/cyclic peptides of protein M of SARS-CoV Urbani,[1],0.4
same,Binding of serum SARS-yellow to linear peptides of protein M of SARS-CoV Urbani,[1],0.5
same,Binding of serum SARS-yellow to looped/cyclic peptides of protein M of SARS-CoV Urbani,[1],0.6
same,Binding of Control Serum Blood-Bank to Looped peptides of the protein M of SARS-CoV Urbani,[2],0.7
same,Binding of Control serum Blood-bank to linear peptides of the protein M of SARS-CoV Urbani,[2],0.9
same,Binding of Control serum LUMC to linear peptides of the protein M of SARS-CoV Urbani,[2],1.0
same,Binding of Control serum LUMC to looped peptides of the protein M of SARS-CoV Urbani,[2],0.6
same,Rabbit serum linear peptides,[3],0.2
same,Rabbit serum looped peptides,[3],0.1
SRRRLLACLCKHKKV,Binding of serum 1a to looped/cyclic peptides of protein X2 of SARS-CoV Urbani,[1],0.2
same,Binding of serum 1b to looped/cyclic peptides of protein X2 of SARS-CoV Urbani,[1],0.2
same,Binding of serum 2 to looped/cyclic peptides of protein X2 of SARS-CoV Urbani,[1],0.1
same,Binding of serum 6 to looped/cyclic peptides of protein X2 of SARS-CoV Urbani,[1],0.0
same,Binding of serum 37 to looped/cyclic peptides of protein X2 of SARS-CoV Urbani,[1],0.2
same,Binding of serum 62 to looped/cyclic peptides of protein X2 of SARS-CoV Urbani,[1],0.3
same,Binding of serum London to looped/cyclic peptides of protein X2 of SARS-CoV Urbani,[1],0.1
same,Binding of serum SARS-green to looped/cyclic peptides of protein X2 of SARS-CoV Urbani,[1],0.2
same,Binding of serum SARS-yellow to looped/cyclic peptides of protein X2 of SARS-CoV Urbani,[1],0.2
same,"Recognition of the peptide by sera of SARS-CoV infected individuals, and form (linear, looped/cyclic) in which it is recognized",[1],recognized in linear form
same,Binding of Control Serum Blood-Bank to Looped peptides,[2],0.2
same,Binding of Control serum Blood-bank to linear peptides,[2],0.9
same,Binding of Control serum LUMC to linear peptides,[2],0.6
same,Binding of Control serum LUMC to looped peptides,[2],0.2
same,Binding of a rabbit serum to linear peptides,[3],0.3
same,Binding of a rabbit serum to looped peptides,[3],0.4
